From the supplement of paper PMC6965134
± gives the standard deviation of the averaged measurements.

Test: TIMS collisional cross section (CCS, N2) of the lipid ion; higher = larger ion cross section
Conditions: ionization mode: positive, one isomer drawn

SMILES	TIMS collisional cross section (sample type: HeLa) [Å²]	TIMS collisional cross section (sample type: Liver) [Å²]	TIMS collisional cross section (sample type: plasma) [Å²]
CCCCC/C=C\C/C=C\C/C=C\C/C=C\CCCC(=O)O[C@H](CO/C=C\CCCCCCCCCCCCCCCC)COP(=O)(O)OCCN [PE P- 18:0@_20:4] (ion (formula + adduct): [C43H78NO7P+H] 1+)	281.6	281.6	281.6 ± 0.14
CC/C=C\C/C=C\C/C=C\C/C=C\C/C=C\C/C=C\CCC(=O)O[C@H](CO/C=C\CCCCCCCCCCCCCCCC)COP(=O)(O)OCCN [PE P- 18:0@_22:6] (ion (formula + adduct): [C45H78NO7P+H] 1+)	–	285	284.2
CCCCC/C=C\C/C=C\CCCCCCCC(=O)O[C@H](CO/C=C\CCCCCCCCCCCCCCCCCC)COP(=O)(O)OCCN [PE P- 20:0@_18:2] (ion (formula + adduct): [C43H82NO7P+H] 1+)	–	–	285
CCCCC/C=C\C/C=C\C/C=C\CCCCCCC(=O)O[C@H](CO/C=C\CCCCCCCCCCCCCCCCCC)COP(=O)(O)OCCN [PE P- 20:0@_20:3] (ion (formula + adduct): [C45H84NO7P+H] 1+)	290.7	–	–
CCCCC/C=C\C/C=C\C/C=C\C/C=C\CCCC(=O)O[C@H](CO/C=C\CCCCCCCCCCCCCCCCCC)COP(=O)(O)OCCN [PE P- 20:0@_20:4] (ion (formula + adduct): [C45H82NO7P+H] 1+)	–	288.7	–
CC/C=C\C/C=C\C/C=C\C/C=C\C/C=C\CCCC(=O)OC[C@H](COP(=O)(O)O[C@H]1C(O)C(O)C(O)[C@@H](O)C1O)OC(=O)CCCCCCCCCCCCCCCCC (some centres undefined) [PI 20:5_18:0@] (ion (formula + adduct): [C47H81O13P+H] 1+)	–	–	308
CCCCCCCCCCCCCCC(=O)OC[C@H](COP(=O)(O)OC[C@H](N)C(=O)O)OC(=O)CCCCCCCCCCCCC [PS 15:0_14:0] (ion (formula + adduct): [C35H68NO10P+Na] 1+)	–	270.3	–
CCCCCC/C=C\CCCCCCCCCC(=O)O[C@H](COC(=O)CCCCCCCCCCCCCCC)COP(=O)(O)OC[C@H](N)C(=O)O [PS 16:0_18:1@] (ion (formula + adduct): [C40H76NO10P+H] 1+)	282.1	–	–
CCCCCCCCCCC/C=C/[C@@H](O)[C@H](COP(=O)([O-])OCC[N+](C)(C)C)NC(=O)CCCCCCCCCCCCCCC [SM d16:1_16:0@] (ion (formula + adduct): [C37H75N2O6P+H] 1+)	–	–	279.1
CCCCCCCC/C=C\CCCCCCCCCCCC(=O)N[C@@H](COP(=O)([O-])OCC[N+](C)(C)C)[C@H](O)/C=C/CCCCCCCCCCC [SM d16:1_22:1@] (ion (formula + adduct): [C43H85N2O6P+H] 1+)	–	–	294.45 ± 0.21
CCCCCCCC/C=C\CCCCCCCCCCCCCC(=O)N[C@@H](COP(=O)([O-])OCC[N+](C)(C)C)[C@H](O)/C=C/CCCCCCCCCCC [SM d16:1_24:1@] (ion (formula + adduct): [C45H89N2O6P+H] 1+)	–	–	299.8
CCCCCCCC/C=C\CCCCCCCCCCCCCC(=O)N[C@@H](COP(=O)([O-])OCC[N+](C)(C)C)[C@H](O)/C=C/CCCCCCCCCCCC [SM d17:1_24:1@] (ion (formula + adduct): [C46H91N2O6P+H] 1+)	302.1	–	–
CCCCCCCCCCCCCCCCCCCCCCCC(=O)N[C@@H](COP(=O)([O-])OCC[N+](C)(C)C)[C@H](O)CCCCCCCCCCCCCCC [SM d18:0_24:0@] (ion (formula + adduct): [C47H97N2O6P+H] 1+)	–	–	309.6
CCCCCCCC/C=C\CCCCCCCC(=O)N[C@@H](COP(=O)([O-])OCC[N+](C)(C)C)[C@H](O)/C=C/CCCCCCCCCCCCC [SM d18:1@_18:1@] (ion (formula + adduct): [C41H81N2O6P+H] 1+)	–	–	287.5
CCCCCCCCCCCCC/C=C/[C@@H](O)[C@H](COP(=O)([O-])OCC[N+](C)(C)C)NC(=O)CCCCCCCCCCCCC [SM d18:1_14:0@] (ion (formula + adduct): [C37H75N2O6P+H] 1+)	279.1	–	–
CCCCCCCCCCCCC/C=C/[C@@H](O)[C@H](COP(=O)([O-])OCC[N+](C)(C)C)NC(=O)CCCCCCCCCCCCCCC [SM d18:1_16:0@] (ion (formula + adduct): [C39H79N2O6P+H] 1+)	284.9	285	285.4
CCCCCCCCCCCCC/C=C/[C@@H](O)[C@H](COP(=O)([O-])OCC[N+](C)(C)C)NC(=O)CCCCCCCCCCCCCCCCCCC [SM d18:1_20:0@] (ion (formula + adduct): [C43H87N2O6P+H] 1+)	–	–	297

SMILES	TIMS collisional cross section (sample type: HeLa) [Å²]	TIMS collisional cross section (sample type: Liver) [Å²]	TIMS collisional cross section (sample type: plasma) [Å²]
CCCCCCCCCCCCC/C=C/[C@@H](O)[C@H](COP(=O)([O-])OCC[N+](C)(C)C)NC(=O)CCCCCCCCCCCCCCCCCCCCC [SM d18:1_22:0@] (ion (formula + adduct): [C45H91N2O6P+H] 1+)	–	302.3	301.9
CCCCCCCC/C=C\CCCCCCCCCCCC(=O)N[C@@H](COP(=O)([O-])OCC[N+](C)(C)C)[C@H](O)/C=C/CCCCCCCCCCCCC [SM d18:1_22:1@] (ion (formula + adduct): [C45H89N2O6P+H] 1+)	–	299.3	299
CCCCCCCCCCCCC/C=C/[C@@H](O)[C@H](COP(=O)([O-])OCC[N+](C)(C)C)NC(=O)CCCCCCCCCCCCCCCCCCCCCCC [SM d18:1_24:0@] (ion (formula + adduct): [C47H95N2O6P+H] 1+)	308.3	–	308.1
CCCCCCCC/C=C\CCCCCCCCCCCCCC(=O)N[C@@H](COP(=O)([O-])OCC[N+](C)(C)C)[C@H](O)/C=C/CCCCCCCCCCCCC [SM d18:1_24:1@] (ion (formula + adduct): [C47H93N2O6P+H] 1+)	305.4 ± 0.14	305.3	305.5
CCC/C=C\CCCCCCCC/C=C/[C@@H](O)[C@H](COP(=O)([O-])OCC[N+](C)(C)C)NC(=O)CCCCCCCCCCCCC [SM d18:2_14:0@] (ion (formula + adduct): [C37H73N2O6P+H] 1+)	275	–	–
CCC/C=C\CCCCCCCC/C=C/[C@@H](O)[C@H](COP(=O)([O-])OCC[N+](C)(C)C)NC(=O)CCCCCCCCCCCCCCC [SM d18:2_16:0@] (ion (formula + adduct): [C39H77N2O6P+H] 1+)	281.4	–	281.3
CCC/C=C\CCCCCCCC/C=C/[C@@H](O)[C@H](COP(=O)([O-])OCC[N+](C)(C)C)NC(=O)CCCCCCCCCCCCCCCCCCCCC [SM d18:2_22:0@] (ion (formula + adduct): [C45H89N2O6P+H] 1+)	–	–	299.9
CCCCCCCCCCCCCC(=O)OC[C@@H](COC(=O)CCCCCCCCCCC)OC(=O)CCCCCCCCCCC [TG 12:0_12:0_14:0] (ion (formula + adduct): [C41H78O6+NH4] 1+)	283	281.3 ± 0.57	282.9
CCCC/C=C\CCCCCCCC(=O)OC[C@@H](COC(=O)CCCCCCCCCCC)OC(=O)CCCCCCCCCCC [TG 12:0_12:0_14:1] (ion (formula + adduct): [C41H76O6+NH4] 1+)	–	–	278.9
CCCCC/C=C\CCCCCCCC(=O)OC[C@@H](COC(=O)CCCCCCCCCCC)OC(=O)CCCCCCCCCCC [TG 12:0_12:0_15:1] (ion (formula + adduct): [C42H78O6+NH4] 1+)	–	280.4	–
CCCCCCCCCCCCCCCC(=O)OC[C@@H](COC(=O)CCCCCCCCCCC)OC(=O)CCCCCCCCCCC [TG 12:0_12:0_16:0] (ion (formula + adduct): [C43H82O6+NH4] 1+)	288	–	–
CCCCCC/C=C\CCCCCCCC(=O)OC[C@@H](COC(=O)CCCCCCCCCCC)OC(=O)CCCCCCCCCCC [TG 12:0_12:0_16:1] (ion (formula + adduct): [C43H80O6+NH4] 1+)	–	284.2	284.1
CCCCCCCC/C=C\CCCCCCCC(=O)OC[C@@H](COC(=O)CCCCCCCCCCC)OC(=O)CCCCCCCCCCC [TG 12:0_12:0_18:1] (ion (formula + adduct): [C45H84O6+NH4] 1+)	–	291.3	–
CCCCCCCCCCCCC(=O)OC[C@@H](COC(=O)CCCCCCCCCCC)OC(=O)CCCCCCCCCCCC [TG 12:0_13:0_13:0] (ion (formula + adduct): [C41H78O6+NH4] 1+)	–	282.7	–
CCCCCCCCCCCCCC(=O)OC[C@@H](COC(=O)CCCCCCCCCCC)OC(=O)CCCCCCCCCCCCC [TG 12:0_14:0_14:0] (ion (formula + adduct): [C43H82O6+NH4] 1+)	289	289.1	289.1
CCCCCCCCCCCCCCC(=O)OC[C@@H](COC(=O)CCCCCCCCCCC)OC(=O)CCCCCCCCCCCCC [TG 12:0_14:0_15:0] (ion (formula + adduct): [C44H84O6+NH4] 1+)	291.9	–	–
